Data taken from patent publication US20240336657A1, “G-ALPHA-S PEPTIDE INHIBITORS AND USES THEREOF” (The Regents of the University of California, priority 2021, published 2024).
Positions of bridges follow the written chain, without caps; N, C: chain ends. Non-standard residues stand in square brackets, D forms with d. Residues, ends and D or L forms follow the SMILES beside them.

Key:
GppNHp-bound Gαs = GppNHp-bound Gαs (Homo sapiens, UniProt P63092); test: Adenylyl cyclase activity assay (Gαs-mediated adenylyl cyclase activation, cAMP production, LANCE Ultra cAMP kit); format: biochemical; parameters: made in house; host or cells: Escherichia coli BL21(DE3); conditions: 6.25 μM of GN13; in the presence of Gβ1/γ2
Chain of GppNHp-bound Gαs (P63092 1-380 isoform P63092-2): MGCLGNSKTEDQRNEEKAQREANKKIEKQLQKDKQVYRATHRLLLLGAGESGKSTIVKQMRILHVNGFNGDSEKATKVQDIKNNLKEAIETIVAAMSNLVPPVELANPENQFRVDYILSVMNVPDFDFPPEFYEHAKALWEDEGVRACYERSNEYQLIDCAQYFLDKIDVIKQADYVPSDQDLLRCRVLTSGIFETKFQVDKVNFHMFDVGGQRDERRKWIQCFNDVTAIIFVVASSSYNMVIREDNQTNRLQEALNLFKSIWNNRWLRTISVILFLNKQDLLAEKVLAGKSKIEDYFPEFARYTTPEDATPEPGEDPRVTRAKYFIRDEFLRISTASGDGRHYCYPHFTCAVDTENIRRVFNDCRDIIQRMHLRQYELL
Description: Active state binding cyclic peptide GN13 blocks Gαs-mediated adenylyl cyclase activation. In order to determine whether (Gαs/GppNHp) specific binders inhibit Gαs activity, we assayed the ability of Gαs to activate its downstream effector adenylyl cyclase (AC) (FIG. 17A). We refer to resynthesized active state binding cyclic peptides with a “GN” (Gαs/GppNHp) preceding their ranking number. […] We then evaluated the inhibitory effect of the top hits on Gαs-mediated adenylyl cyclase activation by measuring production of cAMP in a reconstituted Gαs activity assay (FIG. 17A). […] Cyclic peptides dose dependent inhibition (FIG. 17C). […] WT Gαs at a concentration of 8.5 mg/mL (about 190 μM) in 20 mM HEPES 8.0, 150 mM NaCl, 5 mM MgCl2, 1 mM EDTA-Na 8.0 was diluted to 0.5 μM in dilution buffer (1× PBS 7.4, 0.1% BSA, 1 mM EDTA-Na 8.0, 2 mM DTT, 0.1 mM MgCl2) plus 1 mM GppNHp. […] Reaction mixture was further incubated at room temperature for 2 hours and placed on ice for 5 minutes. cAMP production was initiated by addition of […] of ATP stock (1 mM ATP, 1× PBS 7.4, 0.1% BSA). The reaction was carried out at 30° C. for 10 minutes in a PCR machine and stopped by heating at 95° C. for 3 minutes. The cAMP concentrations were measured by the LANCE Ultra cAMP kit. […] The cAMP concentrations were measured by the LANCE Ultra cAMP kit. cAMP concentrations measurement by the LANCE Ultra cAMP kit. […]

Gαs = Gαs (Homo sapiens, UniProt P63092); test: GDP dissociation assay ([3H]GDP); format: biochemical; parameters: made in house; host or cells: Escherichia coli BL21(DE3)
Chain of Gαs (P63092 1-380 isoform P63092-2): as above
Procedure: Gα proteins were diluted to 400 nM in the EDTA buffer (20 mM HEPES 7.5, 150 mM NaCl, 1 mM EDTA-Na 8.0, 2 mM DTT). [^3H]GDP (1 mCi/mL, 25.2 μM) was added to a final concentration of 1.2 μM, followed by cyclic peptides addition. After incubation at 20° C. for 30 minutes, the same volume of assay buffer ([…] HEPES-Na 7.5, 150 mM NaCl, 2 mM MgCl2, and 1 mM GDP) was added to initiate [^3H]GDP dissociation. At various points, […] was removed and mixed with 390 μL of ice-cold wash buffer (20 mM HEPES 7.5, 150 mM NaCl, 20 mM MgCl2). The mixture was immediately filtered through a mixed cellulose membrane (25 mm, 0.22 μm) held by a microanalysis filter holder (EMD Millipore). The membrane was washed by ice-cold wash buffer (500 μL×3), put in a 6-mL plastic vial and air-dried (room temperature 1.5 h). 5 mL of CytoScint-ES Liquid Scintillation Cocktail was added to each vial. After incubation overnight at room temperature, the vial was used for liquid scintillation counting with a LS 6500 Multi-Purpose Scintillation Counter.
The GDP dissociation curves were fitted by the software GraphPad Prism using the following equation to calculate the dissociation rates (koff): […]
in which “Y” is the radioactivity (Counts per minute) of the sample at time “X” (minutes), and Y0 is the calculated radioactivity of the sample at the time point 0.

[1] = Chemical stability assay in DMEM with 10% FBS; format: in vitro ADME; conditions: bovine, 37° C., values represent 95% confidence intervals
Procedure: These assays were conducted by Pharmaron Beijing CO., Ltd. Cyclic peptides working solutions were prepared at 10 μM in DMEM with 10% FBS (Avantor, Cat #76294-180) or human plasma (Pooled, Male & Female, BioIVT, Cat #HMN666664). The assays were performed in duplicate. Vials were incubated at 37° C. at 60 rpm in a water bath and taken at designated time points including 0, 480, 1080 and 1440 min. For each time point, the initiation of the reaction was staggered so all the time points were terminated with cold acetonitrile containing internal standards (IS, 100 nM alprazolam, 200 nM labetalol, 200 nM Imipramine and 2 μM ketoplofen) at the same time. Samples were vortexed then centrifuged at 4° C. to remove proteins. The supernatants from centrifugation were diluted by ultra-pure H2O and used for LC-MS/MS analysis. All calculations were carried out using GraphPad Prism. Remaining percentages of parent compounds at each time point were estimated by determining the peak area ratios from extractedion chromatograms.

| inhibition of adenylyl cyclase activation by Gαs WT (GppNHp-bound Gαs) | effect on Gαs GDP dissociation rates (koff) (Gαs) | Compound | half-life at 10 μM [1] |
| --- | --- | --- | --- |
| inhibits | only slightly influenced | CC[C@H](C)[C@@H]1NC(=O)[C@H](C)NC(=O)[C@H](Cc2ccc(O)cc2)NC(=O)[C@H](C(C)C)NC(=O)[C@H](CO)NC(=O)[C@H](CCC(=O)O)NC(=O)[C@H](Cc2ccccc2)NC(=O)[C@@H](Cc2ccc(O)cc2)NC(=O)CSC[C@@H](C(=O)NCC(N)=O)NC(=O)[C@H](CC(C)C)NC(=O)[C@H]([C@@H](C)O)NC(=O)CNC(=O)[C@H](Cc2c[nH]c3ccccc23)NC1=O [GN13] ({CH2CO}-[dY]FESVYAIWGTLCG-NH2; thioether N-13) |  |
|  |  | CC[C@H](C)[C@@H]1NC(=O)[C@H](CC(C)C)NC(=O)[C@@H](Cc2ccc(O)cc2)NC(=O)CSC[C@@H](C(=O)NCC(N)=O)NC(=O)[C@@H]2CCCN2C(=O)[C@H](CC(C)C)NC(=O)[C@H](CC(N)=O)NC(=O)[C@H](CC(C)C)NC(=O)[C@H](C)NC(=O)[C@H](Cc2c[nH]c3ccccc23)NC(=O)[C@H](CCC(N)=O)NC(=O)[C@H](CCCNC(=N)N)NC(=O)[C@H](Cc2ccccc2)NC(=O)[C@H]([C@@H](C)O)NC1=O [GD20-F10L] ({CH2CO}-[dY]LITFRQWALNLPCG-NH2; thioether N-14) | 37.4 to 50.3 h |
